Measured values taken from US8207185B2, “CaMKKβ as a target for treating obesity” (Duke University, priority 2006, dated 2012).

Legend:
NPY and AgRP mRNA = test: Third-ventricle infusion of STO-609 in living mice: hypothalamic NPY and AgRP mRNA quantified by RT-PCR; format: in vivo; conditions: 20 uM STO-609 by osmotic mini-pump, 0.5 ul/hr for 7 days, into third ventricle; versus NaOH vehicle; FIG. 1
Procedure: (§1) To test the effect of STO-609 on feeding behavior, we stereotaxically implanted cannula into the third ventricle of living mice and attached the cannula to osmotic min-pumps that distribute fluids at a rate of 0.5 ul/hr for 7 days. Half of the pumps contained 20 uM STO-609 whereas the other half contained the NaOH vehicle. We monitored body weight together with food and water intake daily for 7 days. Then the mice were sacrificed, hypothalami were removed, RNA extracted and the mRNAs encoding NPY and AgRP were quantified by RT-PCR. […] In addition, STO-609 decreased the total amount of food consumed over the 7 day period by 60% (FIG. 2, left panel) but had no effect on water consumption. In addition, whereas the WT mice gained body weight during the 7 day period (about 4% relative to the starting weight) the STO-609 treated mice lost weight (about 7% relative to the starting weight) (FIG. 2, right panel).

[1] = tested on: feeding behavior of living mice; test: Third-ventricle infusion of STO-609 in living mice: food intake, water intake and body weight over 7 days; format: in vivo; conditions: 20 uM STO-609, 0.5 ul/hr for 7 days
Procedure: as §1

O=C(O)c1ccc2c3c1cccc3c(=O)n1c3ccccc3nc21 [STO-609]
AgRP mRNA in hypothalamic RNA (NPY and AgRP mRNA): highly statistically significant decreases
NPY mRNA in hypothalamic RNA (NPY and AgRP mRNA): highly statistically significant decreases
effect on water consumption [1]: no effect
body weight lost relative to the starting weight ([1]; 7 day period, FIG. 2, right panel): about 7%
decrease of total amount of food consumed over the 7 day period ([1]; FIG. 2, left panel): 60%
